From the supplement of paper PMC10883282
± gives the standard deviation of the averaged measurements.

What was measured:
Assay in all cases: relative viability vs DMSO control (72 h) (fraction); higher = more viable cells
HT1080 = system: HT1080
Method in brief: (§1)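 Relative viability is percent growth read by ATPLite and averaged over up to triplicate wells. Sarcoma cells were seeded in 384-well plates to reach 80–90% confluence and given 2.5 µl of serially diluted compound after 24 h, from source plates of 10 mM to 0.0002 mM. Incubation lasted 72 h at 37 °C, 5% CO2, with 0.1% DMSO vehicle and a 5 µM positive control, and the data were rescaled so 1 equals full and 0 equals none.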

KHOS-NP = system: KHOS-NP
Method in brief: as §1

SK-ES-1 = system: SK-ES-1
Method in brief: as §1

RD-ES = system: RD-ES
Method in brief: as §1

SW982 = system: SW982
Method in brief: as §1

KHOS-240S = system: KHOS-240S
Method in brief: as §1

CN(C)C(=O)c1cc2cnc(Nc3ccc(N4CCNCC4)cn3)nc2n1C1CCCC1 [Ribociclib]
relative viability
Conditions	HT1080	KHOS-240S	KHOS-NP	RD-ES	SK-ES-1	SW982
0.00017 µM	1.08 ± 0.035	1.08 ± 0.079	1.08 ± 0.015	0.9605 ± 0.0089	1.03 ± 0.064	1.03 ± 0.031
0.00051 µM	1.11 ± 0.04	1.07 ± 0.016	1.07 ± 0.02	0.9809 ± 0.0049	1.04 ± 0.049	1.03 ± 0.045
0.00152 µM	1.08 ± 0.031	1.08 ± 0.043	1.06 ± 0.017	0.959 ± 0.033	1.06 ± 0.042	1.04 ± 0.013
0.00457 µM	1.08 ± 0.035	1.1 ± 0.029	1.07 ± 0.043	0.985 ± 0.029	1.02 ± 0.058	1.0148 ± 0.0007
0.01372 µM	1.05 ± 0.054	1.06 ± 0.056	1.06 ± 0.023	0.926 ± 0.028	1.04 ± 0.075	1.05 ± 0.04
0.04115 µM	1.08 ± 0.033	1.08 ± 0.045	1.07 ± 0.026	0.9 ± 0.033	0.989 ± 0.011	1.02 ± 0.069
0.1235 µM	1.1 ± 0.073	1.04 ± 0.013	1.07 ± 0.033	0.845 ± 0.017	0.837 ± 0.048	0.992 ± 0.075
0.3704 µM	1.09 ± 0.032	1.05 ± 0.051	1.08 ± 0.013	0.773 ± 0.041	0.761 ± 0.04	1.02 ± 0.014
1.111 µM	1.12 ± 0.035	1 ± 0.013	1.08 ± 0.012	0.735 ± 0.049	0.659 ± 0.031	0.993 ± 0.058
3.333 µM	1.09 ± 0.011	0.891 ± 0.012	1.08 ± 0.011	0.602 ± 0.022	0.466 ± 0.024	0.788 ± 0.035
10 µM	0.978 ± 0.011	0.784 ± 0.045	1.03 ± 0.019	0.546 ± 0.04	0.427 ± 0.0091	0.66 ± 0.042
